Measurements: article PMC11279468, “Exploring a New Generation of Pyrimidine and Pyridine Derivatives as Anti-Influenza Agents Targeting the Polymerase PA–PB1 Subunits Interaction” (Pharmaceutics, 2024)
Where two headings read alike, the source gives them in different places.

Assays:
[1] = biological target: PA–PB1 interaction (6His-PA(239–716) / GST-PB1(1–25)) (Influenza A virus, UniProt P03433); assay: biochemical; type: binding
[2] = test system: MDCK cells
Procedure: (§1) The cytotoxicity of compounds was tested in MDCK cells using the 3-(4,5-dimethylthiazol-2-yl)-2,5-diphenyl tetrazolium bromide (MTT) method, as previously reported [32]. Briefly, MDCK cells (seeded at a density of 2 × 10^4 per well) were grown in 96-well plates for 24 h and then treated with serial dilutions of test compounds, or DMSO as a control, in DMEM supplemented with 10% FBS. After incubation at 37 °C for 48 h, 5 mg/mL of MTT (Sigma, Tokyo, Japan) in PBS was added into each well and incubated at 37 °C for a further 4 h. Successively, a solubilization solution was added to lyse the cells and incubated overnight at 37 °C. Finally, optical density was read at the wavelength of 570 nm on a microtiter plate reader (MultiSkan FC, ThermoFisher Scientific).

[3] = in vitro; conditions: dog
Procedure: as §1

[4] = test system: Influenza virus strain A/PR/8/34 (H1N1); assay: microbe, parasite or virus in culture; conditions: unidentified influenza virus, MDCK, read-out: EC50 (PRA)
[5] = test system: Influenza virus strain A/PR/8/34 (H1N1)
[6] = Cytotoxicity assay (MTT) in MDCK cells
Procedure: as §1

[7] = test system: MDCK cells; assay: Cytotoxicity assay (MTT) in MDCK cells; conditions: read-out: CC50 (MDCK Cells); MTT assay, MDCK cells, 48 h; 50% decrease in cell viability
Procedure: as §1

| Structure (SMILES) | IC50 [1] | melting point | cytotoxicity (in words) [2] | CC50 at 48 h [3] | EC50 [4] | further results |
| --- | --- | --- | --- | --- | --- | --- |
| Cc1cccc(NC(=O)CSc2nc(C(=O)Nc3ccccc3)cc(-c3ccccc3)n2)c1 [Compound 2l, 2-{[2-oxo-2-(m-tolylamino)ethyl]thio}-N,6-diphenylpyrimidine-4-carboxamide] | 125 ± 37 µM | 181 to 182 °C | high cytotoxicity | 46.3 ± 10.4 µM | 13 ± 5.5 µM |  |
| Cc1cccc(NC(=O)CSc2nc(Sc3ccccc3)cc(-c3ccc(F)cc3)n2)c1 [Compound 2k] | 159 ± 29 µM | 146 to 147 °C | high cytotoxicity | 48.2 ± 2.5 µM | 16.4 ± 1.9 µM |  |
| Cc1cccc(NC(=O)CSc2nc(Sc3ccccc3)cc(-c3ccc(Cl)cc3)n2)c1 [Compound 2j, 2-{[4-(4-Chlorophenyl)-6-(phenylthio)pyrimidin-2-yl]thio}-N-(m-tolyl)acetamide] | > 200 µM | 150 to 154 °C | high cytotoxicity | 16 ± 4.2 µM | 32.9 ± 4.1 µM |  |
| Cc1cccc(NC(=O)CSc2nc(-c3ccccc3)cc(-c3ccc(F)cc3)n2)c1 [Compound 2d, 2-{[4-(4-Fluorophenyl)-6-phenylpyrimidin-2-yl]thio}-N-(m-tolyl)acetamide] | 90.1 ± 30.2 µM | 186 to 190 °C |  | > 250 µM | 2.8 ± 0.6 µM | antiviral activity relative to RBV [5]: almost five-fold more active than RBV |
| NC(=O)c1ncn(C2O[C@H](CO)[C@@H](O)[C@H]2O)n1 (stereo partly drawn) [RBV, 1-D-ribofuranosyl-1,2,4-triazole-3-carboxamide, reference compound] |  |  |  |  | 12.8 ± 3.2 µM | CC50 at 48 h ([6]; dog, MDCK cells): > 250 µM |
| CCC(CC)O[C@@H]1C=C(C(=O)O)C[C@H](N)[C@H]1NC(C)=O [OSC, oseltamivir carboxylate] |  |  |  |  |  | EC50 ([5]; read-out: EC50 (PRA)): 0.04 ± 0.01 µM; CC50 [7]: > 250 µM |
| CSCC[C@H](N)C(=O)N[C@@H](CC(=O)O)C(=O)N[C@H](C(=O)N[C@@H](CC(N)=O)C(=O)N1CCC[C@H]1C(=O)N[C@H](C(=O)N[C@@H](CC(C)C)C(=O)N[C@@H](CC(C)C)C(=O)N[C@@H](Cc1ccccc1)C(=O)N[C@@H](CC(C)C)C(=O)N[C@@H](CCCCN)C(=O)N[C@H](C(=O)N1CCC[C@H]1C(=O)N[C@@H](C)C(=O)N[C@@H](CCC(N)=O)C(=O)N[C@@H](Cc1ccc(O)cc1)C(=O)NCC(=O)N[C@@H](CCCNC(=N)N)C(=O)N[C@@H](CCCCN)C(=O)N[C@@H](CCCCN)C(=O)N[C@@H](CCCNC(=N)N)C(=O)N[C@@H](CCCNC(=N)N)C(=O)N[C@@H](CCC(N)=O)C(=O)N[C@@H](CCCNC(=N)N)C(=O)N[C@@H](CCCNC(=N)N)C(=O)N[C@@H](CCCNC(=N)N)C(=O)N1CCC[C@H]1C(=O)N1CCC[C@H]1C(=O)O)C(C)C)[C@@H](C)O)C(C)C [PB1(1–15)-Tat peptide] |  |  |  |  |  | EC50 ([5]; Influenza virus strain A/PR/8/34, 24 h): 49.7 ± 5.1 µM; CC50 [6]: > 250 µM |
